Laboratory results: patent US10369160B2, “Methods of treating cancer” (Intercept Pharmaceuticals, Inc., priority 2016, dated 2019)

Tests used:
[1] = tested on: Cholesterol 7 alpha-hydroxylase (cyp7a1); assay: Hepatic FXR target gene expression, Cyp7a1, in Mdr2^−/− mice; type: in vivo; settings: Mdr2^−/− mice only (not FXR^−/−)
Text: Cholesterol 7 alpha-hydroxylase (cyp7a1) is the rate limiting enzyme in the classical biosynthetic pathways which convert cholesterol into bile acids. Both INT-767 and INT-747 inhibited Cyp7a1 gene expression in Mdr2^−/− mice only (FIG. 8). The bile salt export pump (Bsep) is a membrane protein that uses energy of ATP hydrolysis to actively transport bile acid salts.

[2] = tested on: Mdr2^−/− mice; assay: Hepatocarcinogenesis in Mdr2^−/− mice (tumors, LW/BW, ALT/AST, serum bile acids)
Method: The effects of INT-747, INT-767, and control diet in Mdr2^−/− and FXR^−/− mice on the development of hepatocellular carcinoma were evaluated. INT-747 is a FXR agonist while INT-767 is a dual FXR/TGR5 agonist.
(§2) Mdr2^−/− and FXR^−/− mice were randomly divided into three experimental groups.
The mice were fed a specific rodent diet or a diet supplemented with INT-747, INT-767, or control diet for 15 months. […] After 16 months, the mice were sacrificed and serum, liver and intestine were collected. The total number of hepatic tumors was counted and the diameter of each tumor was measured.
(§3) • Mice (n=4) were fed control diet for 15 months. Group 2: INT-747 • Mice (n=8) were fed control diet supplemented with OCA at a dose of 10 mg/kg for 15 months. Group 3: INT-767 • Mice (n=15) were fed control diet supplemented with INT-767 at a dose of 10 mg/kg for 15 months.

[3] = tested on: small heterodimer partner (Shp); assay: Ileal FXR target gene expression, Shp, in Mdr2^−/− mice; type: in vivo; settings: Mdr2^−/− groups only (not FXR^−/−)
Text: (§1) As expected, both INT-747 and INT-767 stimulated fibroblast growth factor 15 (Fgf15) and small heterodimer partner (Shp) gene expression in Mdr2^−/− groups only (FIGS. 7A and 7B).

[4] = tested on: bile salt export pump (Bsep); assay: Hepatic FXR target gene expression, Bsep, in Mdr2^−/− mice; type: in vivo
Text: Cholesterol 7 alpha-hydroxylase (cyp7a1) is the rate limiting enzyme in the classical biosynthetic pathways which convert cholesterol into bile acids. […] The bile salt export pump (Bsep) is a membrane protein that uses energy of ATP hydrolysis to actively transport bile acid salts.

[5] = tested on: FXR^−/− mice; assay: Hepatocarcinogenesis in FXR^−/− mice (tumors, LW/BW, ALT/AST, serum bile acids); settings: for liver tumors found: diet 10 mg/kg for 15 months
Method: The effects of INT-747, INT-767, and control diet in Mdr2^−/− and FXR^−/− mice on the development of hepatocellular carcinoma were evaluated.
as §2
The mice were fed a specific rodent diet or a diet supplemented with INT-747, INT-767, or control diet for 15 months. All mice were housed under pathogen-free conditions in a temperature-controlled room (23° C.) on a 12-hour light/dark cycle and drank water ad libitum. […] After 16 months, the mice were sacrificed and serum, liver and intestine were collected. The total number of hepatic tumors was counted and the diameter of each tumor was measured.
as §3

[6] = tested on: fibroblast growth factor 15 (Fgf15); assay: Ileal FXR target gene expression, Fgf15, in Mdr2^−/− mice; type: in vivo; settings: Mdr2^−/− groups only (not FXR^−/−)
Text: as §1

[7] = target: T1, FXR (Homo sapiens, UniProt Q96RI1); assay: Potency for FXR (INT-767 versus INT-747); settings: greater than INT-747
T1 sequence (Q96RI1 1-486): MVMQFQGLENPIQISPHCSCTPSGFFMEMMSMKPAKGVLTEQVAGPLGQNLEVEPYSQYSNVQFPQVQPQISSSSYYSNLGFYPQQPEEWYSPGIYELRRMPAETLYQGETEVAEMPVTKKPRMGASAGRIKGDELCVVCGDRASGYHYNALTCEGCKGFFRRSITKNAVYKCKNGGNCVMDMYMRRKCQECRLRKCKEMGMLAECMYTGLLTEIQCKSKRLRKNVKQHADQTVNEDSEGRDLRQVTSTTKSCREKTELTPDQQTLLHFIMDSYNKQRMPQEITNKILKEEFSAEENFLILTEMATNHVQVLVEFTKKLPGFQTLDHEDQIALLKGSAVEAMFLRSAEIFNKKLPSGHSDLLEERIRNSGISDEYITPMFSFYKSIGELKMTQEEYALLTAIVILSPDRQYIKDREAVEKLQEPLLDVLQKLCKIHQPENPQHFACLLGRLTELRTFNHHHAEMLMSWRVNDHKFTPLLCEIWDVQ

| SMILES | hepatic Cyp7a1 gene expression [1] | liver tumors found (appearance/size) ([2]; diet 10 mg/kg for 15 months) | tumors with a diameter larger than 5 mm ([2]; diet 10 mg/kg for 15 months) [%] | ileal Shp gene expression [3] | hepatic Bsep induction [4] | liver tumors found [5] | ileal Fgf15 gene expression [6] | serum bile acid levels [2] | LW/BW ratio (liver weight/body weight) ([2]; compared to control and INT-747 treated mice) | hepatocellular carcinoma development (number of hepatic tumors) ([2]; diet 10 mg/kg for 15 months, compared to control) | ALT levels ([2]; vs control) | AST levels ([2]; vs control) | potency for FXR relative to INT-747 [7] | ALT levels [5] | AST levels [5] | LW/BW ratio (liver weight/body weight) [5] | serum bile acid levels [5] |
| --- | --- | --- | --- | --- | --- | --- | --- | --- | --- | --- | --- | --- | --- | --- | --- | --- | --- |
| CC[C@H]1[C@@H](O)C2C3CC[C@H]([C@H](C)CCOS(=O)(=O)[O-])[C@@]3(C)CCC2[C@@]2(C)CC[C@@H](O)C[C@@H]12.[Na+] (stereo partly drawn) [INT-767, 6α-ethyl-3α,7α,23-trihydroxy-24-nor-5β-cholan-23-sulphate sodium] | inhibited | – | – | – | – | – | – | – | – | – | – | – | – | – | – | – | – |
| CC[C@H]1[C@@H](O)[C@@H]2[C@H](CC[C@]3(C)[C@@H]([C@H](C)CCC(=O)O)CC[C@@H]23)[C@@]2(C)CC[C@@H](O)C[C@@H]12 [INT-747, 6α-ethyl-3α,7α-dihydroxy-5β-cholan-24-oic acid] | inhibited | clearly identifiable liver tumors | ~80 | stimulated | did not promote hepatic Bsep induction | several large liver tumors | stimulated | – | – | – | – | – | – | – | – | – | – |
| CC[C@H]1[C@@H](O)[C@@H]2[C@H](CC[C@]3(C)[C@@H]([C@H](C)CCOS(=O)(=O)[O-])CC[C@@H]23)[C@@]2(C)CC[C@@H](O)C[C@@H]12.[Na+] [INT-767, 6α-ethyl-3α,7α,23-trihydroxy-24-nor-5β-cholan-23-sulphate sodium] | – | minute tumors | – | stimulated | induced hepatic Bsep activation | several large liver tumors | stimulated | significantly reduced | significant reduction | clearly prevented hepatocellular carcinoma development | significantly reduced | significantly reduced | about 10 fold | no difference | no difference | No difference | no reduction occurred |
